Results: US7141546B1, “CRFR2 selective ligands” (priority 2001, dated 2006)

Tests used:
CRFR1 [1] = target: T1, CRFR1 (Homo sapiens, UniProt P34998); experiment: Competitive displacement binding assay, cloned hCRFR1 expressed in CHO cells
T1 construct: expressed in transfected cells
T1 sequence (P34998 24-415): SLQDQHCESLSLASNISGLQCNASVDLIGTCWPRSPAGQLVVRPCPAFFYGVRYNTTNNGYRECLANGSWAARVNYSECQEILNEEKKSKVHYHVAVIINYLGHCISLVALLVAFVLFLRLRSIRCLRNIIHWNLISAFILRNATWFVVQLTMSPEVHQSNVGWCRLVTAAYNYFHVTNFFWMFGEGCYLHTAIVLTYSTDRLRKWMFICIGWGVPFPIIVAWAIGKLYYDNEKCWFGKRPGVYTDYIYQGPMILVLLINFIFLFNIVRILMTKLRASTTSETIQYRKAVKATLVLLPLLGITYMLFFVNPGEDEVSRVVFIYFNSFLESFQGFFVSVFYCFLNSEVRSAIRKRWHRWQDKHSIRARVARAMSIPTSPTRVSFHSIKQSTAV
From the text: A candidate CRFR2 ligand is also easily evaluated in a binding assay using known CRF receptors, such as that described in Perrin, M., et al., Endocrinology, 118, 1171–1179 (1986). CRF receptors and the details of binding assays are discussed later in this specification. […] One such representative binding assay utilizing CRF-R1 receptor is described in Chen, et al., P.N.A.S., 90, 8967–8971 (October 1993).
(§1) CRF receptors have now been cloned and are disclosed in the aforementioned Chen et al. article, in Perrin, M., et al., P.N.A.S, 92, 2969–2973 (March 1995), and in Lovenberg, T., et al., P.N.A.S., 92, 836–840 (January 1995). Binding affinity is a term used to refer to the strength of interaction between ligand and receptor. […] Ki (inhibitory binding affinity constant) is determined using a “standard” or “tracer” radioactive ligand and thus measures the displacement of the tracer from the receptor or binding protein; it is most properly expressed with reference to such tracer. However, so long as these assays are carefully performed under specific conditions with relatively low concentrations of receptor or the like, the calculated Ki will be substantially the same as its dissociation constant KD. […] It is particularly efficient to test for Ki because only a single tracer need be labelled, e.g. radioiodinated. […] Those reported hereinafter are derived using radioactively labeled [Tyr Glu^1, Nle^17]-Svg as a radioligand.
(§2) Binding assays with cells expressing human CRFR1 are carried out as described in the Chen et al. P.N.A.S., supra. The affinities of test peptides for CRFR1 and CRFR2b stably expressed in CHO cells were determined by competitive displacement of ^125I-(Nle^21, Tyr^32) ovine CRF (for CRFR1) or of [^125I-Tyr^o-]Ucn (for CRFR2b) as described.

human CRFR2b = target: T2, human CRFR2b (Homo sapiens, UniProt Q13324); experiment: Competitive displacement binding assay, stably transfected CHO cells expressing human CRFR2b
T2 construct: expressed in transfected cells
T2 sequence (Q13324 1-438 isoform Q13324-2): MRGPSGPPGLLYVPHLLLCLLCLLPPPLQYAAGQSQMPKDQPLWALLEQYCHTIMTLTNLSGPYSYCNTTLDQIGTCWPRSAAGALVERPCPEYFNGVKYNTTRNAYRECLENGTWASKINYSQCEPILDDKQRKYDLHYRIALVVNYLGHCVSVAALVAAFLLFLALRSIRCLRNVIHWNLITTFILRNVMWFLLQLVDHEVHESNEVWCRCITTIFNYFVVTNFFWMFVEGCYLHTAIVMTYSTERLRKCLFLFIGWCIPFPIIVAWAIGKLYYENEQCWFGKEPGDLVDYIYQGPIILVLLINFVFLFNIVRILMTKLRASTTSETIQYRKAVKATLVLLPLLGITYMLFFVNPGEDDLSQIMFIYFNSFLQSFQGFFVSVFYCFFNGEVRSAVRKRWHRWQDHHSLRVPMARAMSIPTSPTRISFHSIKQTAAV
Protocol: as §1, §2

CRFR1 [2] = target: T1, CRFR1; experiment: cAMP accumulation in CHO cells stably transfected with CRFR1 and treated with CRF; format: cell-based
From the text: (§3) In addition to inhibiting CRF receptor binding, a candidate's CRF receptor antagonist activity may be established by the ability of the compound to antagonize an activity associated with CRF. For example, CRF is known to stimulate various biochemical processes, including adenylate cyclase activity. Therefore, compounds may be evaluated as CRF antagonists by their ability to antagonize CRF-stimulated adenylate cyclase activity by, for example, measuring cAMP levels. The inhibition of CRF-stimulated adenylate cyclase activity, determined by the assay described by G. Battaglia et al., Synapse 1:572 (1987), provides an assay for determining a compound's ability to antagonize CRF activity. Accordingly, CRF receptor antagonist activity may be determined by assay techniques which generally include an initial binding assay followed by such a cAMP screening protocol.
as §2

CRFR2 = target: T3, CRFR2 (Homo sapiens, UniProt Q13324); experiment: cAMP accumulation in CHO cells stably transfected with CRFR2 and treated with CRF; format: cell-based; conditions: CHO cells stably transfected with CRFR2, treated with CRF
T3 construct: expressed in transfected cells
T3 sequence (Q13324 1-438 isoform Q13324-2): T2 sequence (Q13324 1-438 isoform Q13324-2)
From the text: as §3, with “protocol. […]” for “protocol.”

CRF receptors = experiment: Intrinsic CRF activity of the antagonist; conditions: when administered at the highest dosage

Q: How did the IC50 (CRFR1 [1]) turn out when CCCC[C@H](NC(=O)[C@H](CCCCN)NC(=O)[C@H](CCCNC(=N)N)NC(=O)[C@H](CC(C)C)NC(=O)[C@](C)(CC(C)C)NC(=O)[C@H](Cc1c[nH]cn1)NC(=O)[C@@H](Cc1ccccc1)NC(C)=O)C(=O)N[C@H](C(=O)N[C@@H](CCC(=O)O)C(=O)N[C@H](C(=O)N[C@@H](CCC(=O)O)C(=O)N[C@@H](CCCCN)C(=O)N[C@@H](CCC(N)=O)C(=O)N[C@@H](CCC(=O)O)C(=O)N[C@@H](CCCCN)C(=O)N[C@@H](CCC(=O)O)C(=O)N[C@@H](CCCCN)C(=O)N[C@@H](CCC(N)=O)C(=O)N[C@@H](CCC(N)=O)C(=O)N[C@@H](C)C(=O)N[C@H]1CCC(=O)NCCCC[C@@H](C(=O)N[C@@H](CC(C)C)C(=O)N[C@@H](CC(C)C)C(=O)N[C@@H](CC(C)C)C(=O)N[C@@H](CC(=O)O)C(=O)N[C@@](C)(CC(C)C)C(=O)N[C@H](C(N)=O)[C@@H](C)CC)NC(=O)[C@H](CC(N)=O)NC(=O)[C@H](CC(N)=O)NC1=O)[C@@H](C)CC)[C@@H](C)CC [Example 1 cyclic peptide, (cyclo 31–34)[Ac-D-Phe^11, His^12, CML ^13,39, Nle^17, Glu^31, Lys^34]-sauvagine(11–40)] was run?
A: > 500 nM

Q: What about the Ki (CRFR1 [1]) of the same compound?
A: ~1000 nM

Q: What about the Ki (human CRFR2b) of the same compound?
A: 1.1 nM

Q: And the “antagonism of CRF activity with respect to CRFR1 (cAMP accumulation)” value (CRFR1 [2])?
A: little or no effect

Q: What about the “antagonism of CRF activity with respect to CRFR2 (cAMP accumulation)” value (CRFR2) of the same compound?
A: effectively antagonize CRF activity

Q: What about the “intrinsic CRF activity” value (CRF receptors) of the same compound?
A: only minor intrinsic CRF activity
